Entries after “also recorded” stand apart in the source; their conditions may differ.
Experiments:
Format in all cases: cell-based, human
[1] = system: MTCO1 of complex-IV and NDUFB8 of complex-I in 22Rv1; experiment: Western blot of mitochondrial electron transport chain proteins; settings: 4Gy+TRC105 vs radiation alone, 72 hours
Protocol: Lysate was collected 72 hours post irradiation for Western blot. FIG. 25A) Blots were probed for a cocktail of mitochondrial complex proteins. Protein levels of MTCO1 of complex-IV and NDUFB8 of complex-I were normalized to ponceau. […] Within each group, the first/left column depicts 0Gy+IgG, the second column depicts 0Gy+TRC105, the third column depicts 4Gy+IgG and the last/right column depicts 4Gy+TRC105. (**p<0.01, ***p<0.001)

[2] = system: 22Rv1 cells; experiment: Total cellular ATP; settings: with or without 4 Gy, 0-168 hours
Protocol: Cells were analyzed for mito-stress test by Seahorse-XF 168 hours following 4 Gy of radiation in the presence of IgG or TRC105. FIG. 26A) Basal respiration, non-mito respiration, proton leak, spare respiratory capacity, FIG. 26B) extracellular acidification rate (ECAR) and FIG. 26C) mitochondrial dependent ATP production were quantitated using Wave 2.3.0 analysis. Data are reported as mean+/−S.D. of a representative experiment (n=5) of 3 independent experiments. FIGS. 26A-26C, the first/left column depicts 0Gy+IgG, the second column depicts 0Gy+TRC105, the third column depicts 4Gy+IgG and the last/right column depicts 4Gy+TRC105. FIG. 26D) 22Rv1 cells treated with IgG, TRC105 or nicotinamide were irradiated (4 Gy). Total cellular ATP was measured 0, 24, 72, 120, and 168 hours post radiation. Within each group, the left column is IgG, middle column is TRC105 and the right column is nicotinamide. Data are reported as mean+/−S.D. of 3 independent experiments. (***p<0.001, ****p<0.0001).

[3] = system: SIRT1 transcription in CW22Rv1; experiment: BMP dependent SIRT1 mRNA expression; settings: 50 ng/ml BMP4, serum free; TRC105 0.05-10 μg/ml
Protocol: FIG. 20A) Western blot for SIRT1 expression measured in 22Rv1 cells following serum starvation and treatment with 50 ng/ml BMP4 for 4 hours. Phosphorylated Smad1/5 and β-actin was measured concurrently. FIG. 20B) SIRT1 mRNA expression was measured in CW22Rv1 under serum free conditions with 50 ng/ml BMP4, IgG in the context of increasing doses of TRC105 (0.05, 0.1, 0.5, 1, 5, or 10 μg/ml). SIRT1 mRNA expression was normalized to GAPDH and to serum treated control. FIG. 20C) Fold Change of SIRT1 mRNA in benign prostate and prostate cancer patients, obtained from R2-Genomics analysis is expressed (n=95). FIG. 20D) Immunohistochemical localization for SIRT1 expression in benign and prostate cancer tissues is indicated by arrows (Human Protein Atlas). […] FIG. 20E) SIRT1 mRNA expression was measured 72 hours following irradiation of 22Rv1 in a dose range of 0-6 Gy. FIG. 20F) SIRT1 mRNA expression was measured in a time course 0-72 hours following 4 Gy irradiation. […]
Total RNA was extracted using the RNeasy kit (Qiagen). […] Quantitative RT-PCR was performed with 5 replicates using the Step One Real-Time PCR system (Applied Biosystems). […] For RNA-sequencing, Ion Proton AmpliSeq Transcriptome RNA Sequencing was performed achieving an average of 3M reads. We mapped an average of 88% of the reads to the human genome with Torrent Suite version 4.4.2.

[4] = system: HPAF-II; experiment: Clonogenic survival assay with radiation; settings: p53 mutant pancreatic cancer cell line
Protocol: (§1) Assays were performed on cell lines with p53 null prostate cancer cell line, FIG. 23A) PC3 and two p53 mutant pancreatic cancer cell lines, FIG. 23B) MIAPACA-2 and FIG. 23C) HPAF-II with indicated doses of radiation. Breast cancer cell lines with intact p53, FIG. 23D) MCF7 and mutant yet functional p53, FIG. 23E) MDA-MB23 were however radio-sensitized by the 1 μg/ml TRC105.

[5] = system: MDAMB231; experiment: Clonogenic survival assay with radiation; settings: breast cancer cell line with mutant yet functional p53; 1 μg/ml TRC105
Protocol: as §1

[6] = system: MCF7; experiment: Clonogenic survival assay with radiation; settings: breast cancer cell line with intact p53; 1 μg/ml TRC105
Protocol: as §1

[7] = system: MIAPACA-2; experiment: Clonogenic survival assay with radiation; settings: p53 mutant pancreatic cancer cell line
Protocol: as §1

[8] = system: CW22Rv1; experiment: Clonogenic survival assay with radiation; settings: 1 μg/ml TRC105 vs IgG, 0 to 6 Gy; p<0.001
Protocol: (§2) FIG. 18A) Cell surface CD105 expression was measured in PC3, C42b, and 22Rv1 72 hours after 4 Gy irradiation treatment by FACS analysis and compared to cells not irradiated (control). FIG. 18B) Cell surface CD105 expression was measured in cell lines following a dose range of irradiation (0, 2, 4, or 6 Gy). FIG. 18C) The durability of cell surface CD105 expression in 22Rv1 was determined 0, 0.5, 4, 8, 24, 48, 72, 120, and 168 hours following 4 Gy irradiation. CD105 cell surface expression fold change was normalized to levels expressed prior to irradiation. FIG. 18D) Western blot for phosphorylated-Smad1/5 was measured in CW22Rv1 cells in the presence or absence of serum starvation and treatment with 50 ng/ml BMP4 or 1 μg/ml TRC105. β-actin expression served as the loading control. FIG. 18E) Annexin-V expression was measured in 22Rv1 cells by FACS analysis 5 days following 4 Gy irradiation in the presence and absence of TRC105. FIG. 18F) Clonogenic assay was measured 10 days following irradiation of CW22Rv1 and C42b cells in a dose range of 0 to 6 Gy in the presence of 1 μg/ml IgG or TRC105. Data are reported as a mean+/−S.D. (**p<0.01, ***p<0.001).

[9] = system: C4-2B; experiment: Clonogenic survival assay with radiation; settings: 1 μg/ml TRC105 vs IgG, 0 to 6 Gy; p<0.001
Protocol: as §2

[10] = system: survivin and full length PARP1 in CW22Rv1; experiment: Survival proteins after radiation and TRC105; settings: 4Gy radiation and TRC105, 5 days

TRC105: partially humanized monoclonal antibody that blocks BMP signaling; human-specific CD105 (endoglin) neutralizing antibody from Tracon Pharmaceuticals
mitochondrial electron transport chain proteins MTCO1 and NDUFB8 [1]: down-regulation of CIV-MTCO1 and CI-NDUF88; also recorded: significantly lower | cellular ATP stores [2]: depleted regardless of radiation treatment | BMP dependent induction of SIRT1 transcription [3]: down-regulated when CD105 was antagonized with TRC105 in a dose dependent manner | radiation sensitivity, clonogenic response [4]: neither the HPAF-II nor MIAPACA-2 cell lines treated with radiation showed a change in clonogenic response | radiation sensitivity, clonogenic survival [5]: positively sensitized to irradiation; also recorded: radio-sensitized | radiation sensitivity, clonogenic survival [6]: positively sensitized to irradiation; also recorded: radio-sensitized | radiation sensitivity, clonogenic response [7]: neither the HPAF-II nor MIAPACA-2 cell lines treated with radiation showed a change in clonogenic response | radiation sensitivity, clonogenic survival [8]: sensitized prostate cancer cells to radiation | radiation sensitivity, clonogenic survival [9]: sensitized prostate cancer cells to radiation | survival proteins (survivin and full length PARP1) [10]: precipitous down regulation of survival proteins

From patent publication US20200239587A1, “SENSITIZATION OF TUMORS TO THERAPIES THROUGH ENDOGLIN ANTAGONISM” (Cedars-Sinai Medical Center, priority 2016, published 2020)
